Targets include TIE1 (Homo sapiens, UniProt P35590); BRAF (Homo sapiens, UniProt P15056); PIK3CG (Homo sapiens, UniProt P48736).
Holding throughout (test): biochemical
What all share (set-up): DiscoveRx KINOMEscan active site-directed competition binding; percent of control kinase bound to immobilised ligand

The next assay deals with T1, YSK4 (Homo sapiens, UniProt Q56UN5).
T1 construct: gene MAP3K19
T1 sequence (Q56UN5 1-1328): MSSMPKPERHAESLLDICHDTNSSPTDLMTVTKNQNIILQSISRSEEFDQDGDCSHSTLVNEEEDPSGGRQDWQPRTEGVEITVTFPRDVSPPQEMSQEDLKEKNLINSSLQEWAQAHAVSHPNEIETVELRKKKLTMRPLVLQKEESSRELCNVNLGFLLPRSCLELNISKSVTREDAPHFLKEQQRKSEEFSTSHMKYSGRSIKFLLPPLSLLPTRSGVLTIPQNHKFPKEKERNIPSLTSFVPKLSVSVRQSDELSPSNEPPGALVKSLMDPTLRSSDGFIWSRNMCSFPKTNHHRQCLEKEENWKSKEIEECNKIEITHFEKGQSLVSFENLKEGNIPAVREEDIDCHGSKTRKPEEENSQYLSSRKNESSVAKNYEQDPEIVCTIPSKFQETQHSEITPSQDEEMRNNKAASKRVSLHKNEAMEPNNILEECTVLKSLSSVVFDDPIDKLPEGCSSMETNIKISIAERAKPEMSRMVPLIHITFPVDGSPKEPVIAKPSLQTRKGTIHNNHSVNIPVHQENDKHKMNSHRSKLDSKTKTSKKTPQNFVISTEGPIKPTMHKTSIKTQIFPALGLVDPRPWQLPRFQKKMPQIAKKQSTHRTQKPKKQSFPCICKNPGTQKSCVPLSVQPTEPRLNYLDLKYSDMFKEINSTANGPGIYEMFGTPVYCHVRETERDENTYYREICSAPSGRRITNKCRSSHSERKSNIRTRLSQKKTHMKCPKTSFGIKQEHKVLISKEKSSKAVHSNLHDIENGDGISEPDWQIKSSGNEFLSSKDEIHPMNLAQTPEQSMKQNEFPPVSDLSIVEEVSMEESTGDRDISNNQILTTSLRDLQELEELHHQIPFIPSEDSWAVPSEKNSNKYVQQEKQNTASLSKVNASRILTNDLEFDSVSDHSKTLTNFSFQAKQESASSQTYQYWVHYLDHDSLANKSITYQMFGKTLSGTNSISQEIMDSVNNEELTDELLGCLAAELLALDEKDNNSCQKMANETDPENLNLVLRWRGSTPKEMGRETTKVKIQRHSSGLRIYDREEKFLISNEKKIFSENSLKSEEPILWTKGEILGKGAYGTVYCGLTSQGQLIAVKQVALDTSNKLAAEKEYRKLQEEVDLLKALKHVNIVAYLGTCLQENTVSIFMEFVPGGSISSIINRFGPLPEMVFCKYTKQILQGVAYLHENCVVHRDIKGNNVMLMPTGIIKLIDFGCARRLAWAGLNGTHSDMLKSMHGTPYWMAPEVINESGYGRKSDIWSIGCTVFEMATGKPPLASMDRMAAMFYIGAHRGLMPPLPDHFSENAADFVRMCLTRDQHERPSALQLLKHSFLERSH

In the next assay the target is T2, FLT3(D835H) (Homo sapiens, UniProt P36888, D835H).
T2 sequence (P36888 1-993 D835H): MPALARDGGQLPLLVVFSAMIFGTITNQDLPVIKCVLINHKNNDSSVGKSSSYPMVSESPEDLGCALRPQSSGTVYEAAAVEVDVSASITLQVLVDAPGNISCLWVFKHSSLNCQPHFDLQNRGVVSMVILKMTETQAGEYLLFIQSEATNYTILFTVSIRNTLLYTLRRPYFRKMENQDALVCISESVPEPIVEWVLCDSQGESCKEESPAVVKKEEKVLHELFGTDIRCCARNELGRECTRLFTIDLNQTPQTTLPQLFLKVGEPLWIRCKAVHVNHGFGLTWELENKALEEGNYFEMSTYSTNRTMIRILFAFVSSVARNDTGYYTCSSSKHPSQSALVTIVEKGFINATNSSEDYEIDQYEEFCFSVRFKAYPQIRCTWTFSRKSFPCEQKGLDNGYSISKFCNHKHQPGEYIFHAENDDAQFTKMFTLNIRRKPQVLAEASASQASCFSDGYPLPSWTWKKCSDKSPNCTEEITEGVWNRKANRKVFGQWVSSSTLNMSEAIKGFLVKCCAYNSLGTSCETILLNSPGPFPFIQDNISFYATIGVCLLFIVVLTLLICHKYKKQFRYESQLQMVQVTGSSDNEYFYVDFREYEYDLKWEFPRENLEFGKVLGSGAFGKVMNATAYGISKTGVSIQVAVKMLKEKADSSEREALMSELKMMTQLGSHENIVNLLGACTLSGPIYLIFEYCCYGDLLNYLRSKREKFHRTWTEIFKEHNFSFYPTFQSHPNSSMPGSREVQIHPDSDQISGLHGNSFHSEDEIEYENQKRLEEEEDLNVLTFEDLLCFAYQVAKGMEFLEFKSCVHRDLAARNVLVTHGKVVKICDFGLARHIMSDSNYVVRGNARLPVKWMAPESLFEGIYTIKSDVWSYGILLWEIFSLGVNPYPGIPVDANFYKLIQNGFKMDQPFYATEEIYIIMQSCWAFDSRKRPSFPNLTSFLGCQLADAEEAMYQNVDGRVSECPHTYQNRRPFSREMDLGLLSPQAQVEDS

Setting [1] is: read-out: Niraparib (MK-4827) / %Ctrl @ 10000nM.
Where [2] appears, read: read-out: Talazoparib (BMN 673) / %Ctrl @ 10000nM.
The mark [3] stands for this setting: read-out: Rucaparib / %Ctrl @ 10000nM, binding competition, % of control.
[4] abbreviates: read-out: Olaparib / %Ctrl @ 10000nM.

Like-named read-outs stand apart in the source and are kept apart here.

PIK3CG, sequence (P48736 whole entry): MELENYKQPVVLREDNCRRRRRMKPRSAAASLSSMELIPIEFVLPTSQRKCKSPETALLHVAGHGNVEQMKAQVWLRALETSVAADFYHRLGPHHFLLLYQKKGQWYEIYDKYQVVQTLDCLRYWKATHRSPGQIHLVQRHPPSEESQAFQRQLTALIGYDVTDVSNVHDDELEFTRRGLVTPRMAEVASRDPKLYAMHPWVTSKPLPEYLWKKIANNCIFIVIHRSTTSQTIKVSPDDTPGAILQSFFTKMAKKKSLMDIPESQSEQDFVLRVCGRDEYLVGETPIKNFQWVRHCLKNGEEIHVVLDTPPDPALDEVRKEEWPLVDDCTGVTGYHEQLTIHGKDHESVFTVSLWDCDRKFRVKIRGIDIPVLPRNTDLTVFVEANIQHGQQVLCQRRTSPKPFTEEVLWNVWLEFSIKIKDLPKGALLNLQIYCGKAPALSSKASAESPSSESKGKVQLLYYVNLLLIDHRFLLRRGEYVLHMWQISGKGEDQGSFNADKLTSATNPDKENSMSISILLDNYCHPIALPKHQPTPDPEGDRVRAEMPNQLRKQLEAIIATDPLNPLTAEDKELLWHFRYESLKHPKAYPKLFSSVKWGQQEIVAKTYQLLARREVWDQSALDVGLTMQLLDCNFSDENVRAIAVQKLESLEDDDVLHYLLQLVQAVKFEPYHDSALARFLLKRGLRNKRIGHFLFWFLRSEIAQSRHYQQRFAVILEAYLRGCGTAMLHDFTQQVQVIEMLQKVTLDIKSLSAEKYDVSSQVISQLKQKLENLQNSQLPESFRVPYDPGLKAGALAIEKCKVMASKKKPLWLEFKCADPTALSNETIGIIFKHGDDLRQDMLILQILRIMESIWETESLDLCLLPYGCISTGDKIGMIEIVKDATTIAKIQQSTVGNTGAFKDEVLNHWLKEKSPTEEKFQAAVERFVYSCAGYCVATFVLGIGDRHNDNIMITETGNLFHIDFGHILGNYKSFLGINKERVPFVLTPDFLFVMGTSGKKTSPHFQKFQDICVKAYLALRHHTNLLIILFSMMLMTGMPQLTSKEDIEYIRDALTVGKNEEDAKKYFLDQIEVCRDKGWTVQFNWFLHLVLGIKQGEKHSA
BRAF, sequence (P15056 whole entry): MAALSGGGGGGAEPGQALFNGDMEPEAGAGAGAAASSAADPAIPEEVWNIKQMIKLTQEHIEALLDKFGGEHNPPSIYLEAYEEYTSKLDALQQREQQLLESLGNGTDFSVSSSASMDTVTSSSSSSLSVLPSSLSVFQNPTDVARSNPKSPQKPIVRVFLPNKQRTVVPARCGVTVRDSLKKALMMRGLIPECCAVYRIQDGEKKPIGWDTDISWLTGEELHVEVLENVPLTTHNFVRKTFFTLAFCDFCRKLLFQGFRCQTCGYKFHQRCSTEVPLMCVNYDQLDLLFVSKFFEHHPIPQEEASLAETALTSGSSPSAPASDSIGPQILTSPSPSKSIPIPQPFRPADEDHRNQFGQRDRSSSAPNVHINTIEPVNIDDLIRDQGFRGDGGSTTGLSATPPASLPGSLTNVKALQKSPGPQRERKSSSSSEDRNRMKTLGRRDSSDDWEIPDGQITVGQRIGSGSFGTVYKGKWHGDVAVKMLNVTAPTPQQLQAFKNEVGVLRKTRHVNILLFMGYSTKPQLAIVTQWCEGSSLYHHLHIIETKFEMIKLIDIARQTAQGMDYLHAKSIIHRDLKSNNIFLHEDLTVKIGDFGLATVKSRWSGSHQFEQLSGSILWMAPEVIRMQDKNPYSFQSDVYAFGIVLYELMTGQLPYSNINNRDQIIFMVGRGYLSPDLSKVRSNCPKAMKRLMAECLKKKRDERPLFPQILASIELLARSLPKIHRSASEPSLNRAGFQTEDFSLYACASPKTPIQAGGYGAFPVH
TIE1, sequence (P35590 whole entry): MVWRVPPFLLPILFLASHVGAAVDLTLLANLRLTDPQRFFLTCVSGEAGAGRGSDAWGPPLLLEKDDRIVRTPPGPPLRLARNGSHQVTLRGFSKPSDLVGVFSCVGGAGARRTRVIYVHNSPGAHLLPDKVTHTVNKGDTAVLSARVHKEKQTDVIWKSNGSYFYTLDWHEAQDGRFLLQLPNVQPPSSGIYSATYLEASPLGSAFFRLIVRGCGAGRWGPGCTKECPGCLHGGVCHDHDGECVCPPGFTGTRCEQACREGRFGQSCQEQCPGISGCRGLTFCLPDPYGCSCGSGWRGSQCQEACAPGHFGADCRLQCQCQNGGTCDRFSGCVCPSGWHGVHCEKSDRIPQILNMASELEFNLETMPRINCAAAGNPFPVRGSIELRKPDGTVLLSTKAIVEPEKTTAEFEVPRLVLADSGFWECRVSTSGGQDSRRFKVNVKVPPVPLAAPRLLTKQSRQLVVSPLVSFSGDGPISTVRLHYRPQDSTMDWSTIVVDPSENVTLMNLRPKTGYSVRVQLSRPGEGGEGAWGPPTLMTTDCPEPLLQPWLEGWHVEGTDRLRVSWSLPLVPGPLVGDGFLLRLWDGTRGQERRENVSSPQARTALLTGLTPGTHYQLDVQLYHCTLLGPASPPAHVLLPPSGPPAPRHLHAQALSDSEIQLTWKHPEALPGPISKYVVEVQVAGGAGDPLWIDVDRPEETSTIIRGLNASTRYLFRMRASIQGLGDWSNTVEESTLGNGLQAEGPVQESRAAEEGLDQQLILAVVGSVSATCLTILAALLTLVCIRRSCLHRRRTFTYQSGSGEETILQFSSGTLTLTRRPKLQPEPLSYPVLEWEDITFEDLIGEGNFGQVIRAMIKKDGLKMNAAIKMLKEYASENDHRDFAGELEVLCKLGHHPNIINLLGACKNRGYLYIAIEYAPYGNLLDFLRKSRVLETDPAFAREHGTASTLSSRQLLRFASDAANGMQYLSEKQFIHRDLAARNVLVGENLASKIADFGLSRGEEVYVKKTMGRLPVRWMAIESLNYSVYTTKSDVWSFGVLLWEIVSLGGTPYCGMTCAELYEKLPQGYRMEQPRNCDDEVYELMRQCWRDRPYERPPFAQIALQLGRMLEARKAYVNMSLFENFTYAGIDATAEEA

For the compound `NC(=O)c1cccc2cn(-c3ccc([C@@H]4CCCNC4)cc3)nc12` [Niraparib], the percent of control binding at 10 µM on TIE1 (setting [1]) was 87%; at BRAF (setting [1]) it was 95%; at PIK3CG (setting [1]) it was 100%; on YSK4 (setting [1]), 63%; on FLT3(D835H) (setting [1]), 83%.
As for `Cn1ncnc1[C@H]1c2n[nH]c(=O)c3cc(F)cc(c23)N[C@@H]1c1ccc(F)cc1` [Talazoparib], the percent of control binding at 10 µM was 100% at TIE1 (setting [2]); 67% on BRAF (setting [2]); 62% at PIK3CG (setting [2]); 89% at YSK4 (setting [2]); 89% on FLT3(D835H) (setting [2]).
With `CNCc1ccc(-c2[nH]c3cc(F)cc4c3c2CCNC4=O)cc1` [Rucaparib], the percent of control binding at 10 µM on TIE1 (setting [3]) was determined as 92%; at BRAF (setting [3]), 66%; at PIK3CG (setting [3]) it was 88%; at YSK4 (setting [3]), 58%. In addition, the “Rucaparib / %Ctrl @ 10000nM” value at FLT3(D835H) (binding competition, % of control) is listed as 42%.
Regarding `O=C(c1cc(Cc2n[nH]c(=O)c3ccccc23)ccc1F)N1CCN(C(=O)C2CC2)CC1` [Olaparib], the percent of control binding at 10 µM stood at 96% on TIE1 (setting [4]); 76% at BRAF (setting [4]); 89% at PIK3CG (setting [4]); 65% on YSK4 (setting [4]); 91% at FLT3(D835H) (setting [4]).

Source of the values: publication PMC7026418, “The kinase polypharmacology landscape of clinical PARP inhibitors” (Scientific Reports, 2020).
